Assay [1] has as its target T1, Tyrosine-protein phosphatase non-receptor type 7 (Homo sapiens, UniProt P35236).
T1 sequence (P35236 whole entry): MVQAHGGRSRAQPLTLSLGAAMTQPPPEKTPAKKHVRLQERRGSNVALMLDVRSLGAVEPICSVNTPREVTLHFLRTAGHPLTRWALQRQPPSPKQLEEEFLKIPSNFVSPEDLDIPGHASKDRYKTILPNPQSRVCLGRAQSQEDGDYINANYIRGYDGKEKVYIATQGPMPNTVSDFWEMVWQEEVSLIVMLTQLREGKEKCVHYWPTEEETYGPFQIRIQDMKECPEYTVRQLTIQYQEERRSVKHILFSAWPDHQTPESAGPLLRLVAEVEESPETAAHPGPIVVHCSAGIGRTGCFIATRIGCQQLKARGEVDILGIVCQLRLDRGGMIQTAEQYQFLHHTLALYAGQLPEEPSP
It is filed as functional.

The target of assay [2] is T2, Tyrosine-protein phosphatase non-receptor type 22 (Homo sapiens, UniProt Q9Y2R2).
T2 sequence (Q9Y2R2 whole entry): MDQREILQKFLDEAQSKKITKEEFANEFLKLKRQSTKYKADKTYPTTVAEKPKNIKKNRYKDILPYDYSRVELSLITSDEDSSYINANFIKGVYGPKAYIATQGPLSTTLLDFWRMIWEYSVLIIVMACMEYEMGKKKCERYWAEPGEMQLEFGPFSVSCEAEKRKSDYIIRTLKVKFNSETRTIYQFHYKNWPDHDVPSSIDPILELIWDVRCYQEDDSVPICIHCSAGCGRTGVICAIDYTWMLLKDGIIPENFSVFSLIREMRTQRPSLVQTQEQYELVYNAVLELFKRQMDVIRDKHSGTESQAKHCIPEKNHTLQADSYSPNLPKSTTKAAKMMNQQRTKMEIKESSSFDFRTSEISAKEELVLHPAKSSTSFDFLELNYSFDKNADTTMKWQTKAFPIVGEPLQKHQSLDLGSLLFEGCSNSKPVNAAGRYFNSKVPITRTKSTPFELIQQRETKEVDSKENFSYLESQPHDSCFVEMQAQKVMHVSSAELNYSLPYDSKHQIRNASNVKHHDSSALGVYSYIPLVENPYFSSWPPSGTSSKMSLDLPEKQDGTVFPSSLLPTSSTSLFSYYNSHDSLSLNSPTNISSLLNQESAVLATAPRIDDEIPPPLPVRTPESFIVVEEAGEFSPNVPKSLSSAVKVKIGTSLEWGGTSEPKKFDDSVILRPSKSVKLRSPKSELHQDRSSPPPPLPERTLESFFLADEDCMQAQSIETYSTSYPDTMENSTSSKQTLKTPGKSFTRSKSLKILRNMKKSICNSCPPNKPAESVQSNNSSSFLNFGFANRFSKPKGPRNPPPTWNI
It is filed as functional.

Assay [3] has as its target T2, Tyrosine-protein phosphatase non-receptor type 22. It is filed as functional. This is another data set of the same source.
A short description of assay [4]: Counterscreen for AddAB inhibitors: absorbance-based bacterial cell-based high throughput dose response assay for inhibitors of bacterial viability. [Related pubchem assays (depositor defined):AID435030, AID449728, AID449731, AID488942, AID488955, AID488956]. It is filed as functional. (Counterscreens check selectivity or assay interference.)
The target of assay [5] is T3, Exodeoxyribonuclease V (Escherichia coli (strain K12), UniProt P04993+P07648+P08394).
T3 sequence (P04993 whole entry): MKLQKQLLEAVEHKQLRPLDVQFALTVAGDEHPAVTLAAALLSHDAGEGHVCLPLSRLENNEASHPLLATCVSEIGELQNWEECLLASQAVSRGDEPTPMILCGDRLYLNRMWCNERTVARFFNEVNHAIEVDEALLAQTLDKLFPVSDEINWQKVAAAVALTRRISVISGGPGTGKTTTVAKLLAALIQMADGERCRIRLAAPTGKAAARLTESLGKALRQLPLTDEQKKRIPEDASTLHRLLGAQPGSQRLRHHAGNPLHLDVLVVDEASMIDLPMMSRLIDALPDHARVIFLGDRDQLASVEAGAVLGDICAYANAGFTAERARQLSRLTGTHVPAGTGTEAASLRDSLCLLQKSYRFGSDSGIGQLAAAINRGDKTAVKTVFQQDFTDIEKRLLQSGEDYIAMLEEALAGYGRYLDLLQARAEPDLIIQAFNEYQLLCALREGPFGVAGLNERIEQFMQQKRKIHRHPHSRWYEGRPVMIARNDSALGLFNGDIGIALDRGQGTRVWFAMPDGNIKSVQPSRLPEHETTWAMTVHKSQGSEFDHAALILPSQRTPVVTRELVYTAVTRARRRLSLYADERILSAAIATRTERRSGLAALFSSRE
T3 sequence (P07648 whole entry): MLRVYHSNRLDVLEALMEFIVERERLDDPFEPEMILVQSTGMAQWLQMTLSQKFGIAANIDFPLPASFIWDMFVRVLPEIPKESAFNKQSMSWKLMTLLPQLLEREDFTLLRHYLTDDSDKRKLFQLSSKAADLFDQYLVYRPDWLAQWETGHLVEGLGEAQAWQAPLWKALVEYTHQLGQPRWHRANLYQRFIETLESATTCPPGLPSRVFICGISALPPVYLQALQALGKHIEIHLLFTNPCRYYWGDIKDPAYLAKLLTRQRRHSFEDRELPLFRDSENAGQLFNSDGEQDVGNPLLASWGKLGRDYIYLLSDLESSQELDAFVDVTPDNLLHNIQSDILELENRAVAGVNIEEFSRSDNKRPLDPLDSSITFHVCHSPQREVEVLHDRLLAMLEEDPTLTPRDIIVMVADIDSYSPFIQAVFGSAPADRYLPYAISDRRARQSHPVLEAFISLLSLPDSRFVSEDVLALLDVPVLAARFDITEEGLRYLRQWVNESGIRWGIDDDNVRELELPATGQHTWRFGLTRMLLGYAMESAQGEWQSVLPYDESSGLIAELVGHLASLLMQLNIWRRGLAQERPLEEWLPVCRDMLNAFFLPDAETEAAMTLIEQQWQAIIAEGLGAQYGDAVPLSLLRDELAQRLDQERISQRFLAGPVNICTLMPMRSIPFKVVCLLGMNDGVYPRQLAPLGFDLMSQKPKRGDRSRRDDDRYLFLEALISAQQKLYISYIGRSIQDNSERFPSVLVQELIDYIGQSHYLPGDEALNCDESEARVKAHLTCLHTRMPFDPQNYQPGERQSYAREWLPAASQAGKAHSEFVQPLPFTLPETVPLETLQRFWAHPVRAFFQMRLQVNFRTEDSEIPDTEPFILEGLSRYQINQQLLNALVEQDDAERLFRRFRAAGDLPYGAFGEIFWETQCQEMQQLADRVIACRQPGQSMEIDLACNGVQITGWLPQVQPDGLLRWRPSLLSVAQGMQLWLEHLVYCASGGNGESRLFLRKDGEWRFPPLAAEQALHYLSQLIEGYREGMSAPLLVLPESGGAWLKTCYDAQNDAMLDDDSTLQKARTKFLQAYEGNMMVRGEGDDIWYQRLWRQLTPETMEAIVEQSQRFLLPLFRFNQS
T3 sequence (P08394 whole entry): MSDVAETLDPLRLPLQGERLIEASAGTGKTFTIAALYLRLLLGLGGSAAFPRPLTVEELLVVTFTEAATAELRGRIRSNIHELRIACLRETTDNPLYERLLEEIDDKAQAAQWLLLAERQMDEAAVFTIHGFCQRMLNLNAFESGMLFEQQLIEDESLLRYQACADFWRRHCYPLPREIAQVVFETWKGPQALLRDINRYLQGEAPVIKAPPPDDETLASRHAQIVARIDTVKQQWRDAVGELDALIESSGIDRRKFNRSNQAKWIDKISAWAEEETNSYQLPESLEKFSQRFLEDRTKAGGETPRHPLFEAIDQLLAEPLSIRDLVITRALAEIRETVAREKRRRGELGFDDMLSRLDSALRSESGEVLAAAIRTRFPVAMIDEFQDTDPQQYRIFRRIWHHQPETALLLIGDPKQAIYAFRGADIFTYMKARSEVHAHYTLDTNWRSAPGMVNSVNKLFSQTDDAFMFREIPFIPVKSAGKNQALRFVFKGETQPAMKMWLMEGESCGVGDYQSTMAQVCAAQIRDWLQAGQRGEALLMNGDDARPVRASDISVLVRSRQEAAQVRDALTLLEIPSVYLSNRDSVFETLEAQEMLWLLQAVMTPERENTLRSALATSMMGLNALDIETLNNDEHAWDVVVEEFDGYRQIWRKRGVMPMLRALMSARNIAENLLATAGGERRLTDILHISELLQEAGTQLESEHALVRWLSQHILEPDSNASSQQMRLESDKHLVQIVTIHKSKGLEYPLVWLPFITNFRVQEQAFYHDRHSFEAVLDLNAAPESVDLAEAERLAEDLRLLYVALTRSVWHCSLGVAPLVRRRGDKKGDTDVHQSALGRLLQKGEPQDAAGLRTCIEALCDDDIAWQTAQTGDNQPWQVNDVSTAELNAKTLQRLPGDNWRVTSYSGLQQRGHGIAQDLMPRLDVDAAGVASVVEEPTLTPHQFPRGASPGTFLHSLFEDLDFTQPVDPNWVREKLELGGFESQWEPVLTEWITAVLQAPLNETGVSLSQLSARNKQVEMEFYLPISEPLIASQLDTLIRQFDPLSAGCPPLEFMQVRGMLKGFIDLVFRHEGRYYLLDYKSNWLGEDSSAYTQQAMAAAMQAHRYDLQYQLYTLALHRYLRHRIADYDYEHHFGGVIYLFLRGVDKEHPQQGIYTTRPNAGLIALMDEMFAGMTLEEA
In words: E. coli RecBCD inhibitors, dose response, counter-screen for AddAB inhibitor project, absorbance, V66 E. coli, mutant T4 phage (AID 492957). It is filed as functional, cell-based, Escherichia coli str. K-12 substr. MG1655.

Assay [6] addresses Peroxisome proliferator-activated receptor gamma/Nuclear receptor coactivator 1 (Homo sapiens, UniProt P37231). In words: TR-FRET dose response biochemical High Throughput Screening assay for agonists of the steroid receptor coactivator 1 (SRC-1) recruitment by the peroxisome proliferator-activated receptor gamma (PPAR gamma): non-selective agonists. [Related pubchem assays (depositor defined):AID1300, AID1808, AID504735, AID631]. It is filed as protein assay.

Assay [7] concerns the target Peroxisome proliferator-activated receptor gamma/Nuclear receptor coactivator 2 (Homo sapiens, UniProt P37231). Description: TR-FRET dose response biochemical High Throughput Screening assay for agonists of the steroid receptor coactivator 2 (SRC-2) recruitment by the peroxisome proliferator-activated receptor gamma (PPAR gamma): non-selective agonists. [Related pubchem assays: 1297, 1032 ]. It is filed as functional. A general note: Time-resolved FRET reads energy transfer from a long-lived donor to a nearby acceptor.

Assay [8] concerns the target Peroxisome proliferator-activated receptor gamma/Nuclear receptor coactivator 3 (Homo sapiens, UniProt P37231). Description: TR-FRET dose response biochemical High Throughput Screening assay for agonists of the steroid receptor coactivator 3 (SRC-3) recruitment by the peroxisome proliferator-activated receptor gamma (PPAR gamma): non-selective agonists. [Related pubchem assays: 1301 (Confirmation screen.), 1048 (Primary screen.)]. It is filed as functional.

For assay [9], the target named is T4, Streptokinase A (Streptococcus pyogenes serotype M1, UniProt P10520).
T4 sequence (P10520 whole entry): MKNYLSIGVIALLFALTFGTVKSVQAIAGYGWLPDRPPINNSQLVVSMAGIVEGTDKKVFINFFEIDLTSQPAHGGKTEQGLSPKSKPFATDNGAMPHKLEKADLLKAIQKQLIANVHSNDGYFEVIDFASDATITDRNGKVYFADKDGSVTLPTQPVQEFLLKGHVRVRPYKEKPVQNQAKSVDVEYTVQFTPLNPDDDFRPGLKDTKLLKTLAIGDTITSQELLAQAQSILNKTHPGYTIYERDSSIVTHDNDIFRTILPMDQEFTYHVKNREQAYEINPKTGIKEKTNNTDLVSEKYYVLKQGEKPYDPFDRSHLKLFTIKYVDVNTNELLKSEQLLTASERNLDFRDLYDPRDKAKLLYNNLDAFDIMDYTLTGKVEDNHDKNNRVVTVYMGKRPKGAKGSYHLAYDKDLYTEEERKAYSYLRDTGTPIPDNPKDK
Description: S. pyogenes streptokinase expression inhibitors, potency, dose response, plasminogen activation absorbance, OD405 (AID 1914).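 Note: secreted streptokinase activity via plasminogen activation per viability signal from cell pellet.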 It is filed as functional, Streptococcus pyogenes M1 GAS.

Assay [10] concerns Streptococcus sp. 'group A'. In words: growth inhibition of control SK(-) GAS strain, dose response, counter-screen for streptokinase expression inhibitor project, luminescence, kanamycin, BacTiterGlo, confirmation (AID 1900). It is filed as functional, organism-based.
Assay [11] deals with Streptococcus. Description: Group A Streptococcus viability loss, dose response, counter-screen for streptokinase expression inhibitor project, luminescence, BacTiterGlo (AID 1915).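 Note: potency for reduction of bacterial viability or growth.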 It is filed as functional, organism-based.
In assay [12] the target is Nonstructural protein 1 (Influenza A virus, UniProt Q194T2). It is filed as functional, Influenza A virus (A/California/07/2009(H1N1)).

The source made the active and inactive calls.

Peroxisome proliferator-activated receptor gamma/Nuclear receptor coactivator 3, sequence (P37231 whole entry): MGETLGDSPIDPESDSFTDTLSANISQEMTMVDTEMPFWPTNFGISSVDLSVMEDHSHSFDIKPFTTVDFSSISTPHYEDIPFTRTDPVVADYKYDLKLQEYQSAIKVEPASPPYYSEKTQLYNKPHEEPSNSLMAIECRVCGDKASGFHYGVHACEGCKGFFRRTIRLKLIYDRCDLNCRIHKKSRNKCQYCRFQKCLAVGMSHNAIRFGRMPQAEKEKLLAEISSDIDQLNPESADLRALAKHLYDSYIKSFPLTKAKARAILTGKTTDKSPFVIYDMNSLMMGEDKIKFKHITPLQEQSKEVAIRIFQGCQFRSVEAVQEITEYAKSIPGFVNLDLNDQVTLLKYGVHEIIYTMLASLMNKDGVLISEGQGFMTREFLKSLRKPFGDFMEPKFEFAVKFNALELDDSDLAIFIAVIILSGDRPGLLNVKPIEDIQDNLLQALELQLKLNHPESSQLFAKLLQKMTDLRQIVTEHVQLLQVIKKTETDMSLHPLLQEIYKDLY
Peroxisome proliferator-activated receptor gamma/Nuclear receptor coactivator 3, sequence (Q9Y6Q9 whole entry, further chain): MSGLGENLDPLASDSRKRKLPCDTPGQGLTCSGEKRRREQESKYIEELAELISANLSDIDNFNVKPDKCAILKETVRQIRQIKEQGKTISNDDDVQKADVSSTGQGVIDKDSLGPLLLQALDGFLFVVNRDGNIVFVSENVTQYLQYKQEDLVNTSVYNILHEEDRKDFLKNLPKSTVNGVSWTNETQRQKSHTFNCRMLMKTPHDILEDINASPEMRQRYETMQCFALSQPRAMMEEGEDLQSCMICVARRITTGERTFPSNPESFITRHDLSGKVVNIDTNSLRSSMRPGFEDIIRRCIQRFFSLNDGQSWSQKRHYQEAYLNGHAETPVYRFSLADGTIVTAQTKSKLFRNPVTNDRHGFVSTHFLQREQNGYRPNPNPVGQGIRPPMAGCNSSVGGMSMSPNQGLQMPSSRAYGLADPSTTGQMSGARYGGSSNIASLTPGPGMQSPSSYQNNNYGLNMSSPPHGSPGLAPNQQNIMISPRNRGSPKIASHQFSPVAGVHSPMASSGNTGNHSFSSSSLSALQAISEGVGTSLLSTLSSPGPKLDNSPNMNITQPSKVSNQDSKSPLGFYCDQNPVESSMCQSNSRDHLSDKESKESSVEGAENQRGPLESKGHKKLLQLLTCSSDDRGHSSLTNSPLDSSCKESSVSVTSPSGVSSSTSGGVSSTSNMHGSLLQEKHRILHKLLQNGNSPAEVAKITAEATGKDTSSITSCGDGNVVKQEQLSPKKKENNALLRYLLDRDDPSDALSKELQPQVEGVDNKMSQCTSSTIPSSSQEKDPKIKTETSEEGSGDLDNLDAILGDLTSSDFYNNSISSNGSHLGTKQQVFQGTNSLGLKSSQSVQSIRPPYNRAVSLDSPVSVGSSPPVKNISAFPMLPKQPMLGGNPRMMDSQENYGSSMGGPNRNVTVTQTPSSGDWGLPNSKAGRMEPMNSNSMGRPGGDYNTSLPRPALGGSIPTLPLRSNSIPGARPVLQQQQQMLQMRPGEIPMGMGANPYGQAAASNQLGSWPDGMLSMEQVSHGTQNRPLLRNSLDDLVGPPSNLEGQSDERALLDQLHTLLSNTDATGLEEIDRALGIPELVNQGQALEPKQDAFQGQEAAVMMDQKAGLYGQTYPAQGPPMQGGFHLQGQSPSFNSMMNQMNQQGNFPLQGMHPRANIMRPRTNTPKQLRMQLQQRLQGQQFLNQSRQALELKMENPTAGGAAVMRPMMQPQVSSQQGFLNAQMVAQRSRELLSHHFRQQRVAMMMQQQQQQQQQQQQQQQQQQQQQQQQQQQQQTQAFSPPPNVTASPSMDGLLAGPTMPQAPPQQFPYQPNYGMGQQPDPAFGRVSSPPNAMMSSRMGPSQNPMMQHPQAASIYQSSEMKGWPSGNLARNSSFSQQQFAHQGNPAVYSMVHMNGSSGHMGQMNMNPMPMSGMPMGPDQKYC
Peroxisome proliferator-activated receptor gamma/Nuclear receptor coactivator 1, sequence (P37231 whole entry): as the sequence (P37231 whole entry) above
Peroxisome proliferator-activated receptor gamma/Nuclear receptor coactivator 1, sequence (Q15788 whole entry, further chain): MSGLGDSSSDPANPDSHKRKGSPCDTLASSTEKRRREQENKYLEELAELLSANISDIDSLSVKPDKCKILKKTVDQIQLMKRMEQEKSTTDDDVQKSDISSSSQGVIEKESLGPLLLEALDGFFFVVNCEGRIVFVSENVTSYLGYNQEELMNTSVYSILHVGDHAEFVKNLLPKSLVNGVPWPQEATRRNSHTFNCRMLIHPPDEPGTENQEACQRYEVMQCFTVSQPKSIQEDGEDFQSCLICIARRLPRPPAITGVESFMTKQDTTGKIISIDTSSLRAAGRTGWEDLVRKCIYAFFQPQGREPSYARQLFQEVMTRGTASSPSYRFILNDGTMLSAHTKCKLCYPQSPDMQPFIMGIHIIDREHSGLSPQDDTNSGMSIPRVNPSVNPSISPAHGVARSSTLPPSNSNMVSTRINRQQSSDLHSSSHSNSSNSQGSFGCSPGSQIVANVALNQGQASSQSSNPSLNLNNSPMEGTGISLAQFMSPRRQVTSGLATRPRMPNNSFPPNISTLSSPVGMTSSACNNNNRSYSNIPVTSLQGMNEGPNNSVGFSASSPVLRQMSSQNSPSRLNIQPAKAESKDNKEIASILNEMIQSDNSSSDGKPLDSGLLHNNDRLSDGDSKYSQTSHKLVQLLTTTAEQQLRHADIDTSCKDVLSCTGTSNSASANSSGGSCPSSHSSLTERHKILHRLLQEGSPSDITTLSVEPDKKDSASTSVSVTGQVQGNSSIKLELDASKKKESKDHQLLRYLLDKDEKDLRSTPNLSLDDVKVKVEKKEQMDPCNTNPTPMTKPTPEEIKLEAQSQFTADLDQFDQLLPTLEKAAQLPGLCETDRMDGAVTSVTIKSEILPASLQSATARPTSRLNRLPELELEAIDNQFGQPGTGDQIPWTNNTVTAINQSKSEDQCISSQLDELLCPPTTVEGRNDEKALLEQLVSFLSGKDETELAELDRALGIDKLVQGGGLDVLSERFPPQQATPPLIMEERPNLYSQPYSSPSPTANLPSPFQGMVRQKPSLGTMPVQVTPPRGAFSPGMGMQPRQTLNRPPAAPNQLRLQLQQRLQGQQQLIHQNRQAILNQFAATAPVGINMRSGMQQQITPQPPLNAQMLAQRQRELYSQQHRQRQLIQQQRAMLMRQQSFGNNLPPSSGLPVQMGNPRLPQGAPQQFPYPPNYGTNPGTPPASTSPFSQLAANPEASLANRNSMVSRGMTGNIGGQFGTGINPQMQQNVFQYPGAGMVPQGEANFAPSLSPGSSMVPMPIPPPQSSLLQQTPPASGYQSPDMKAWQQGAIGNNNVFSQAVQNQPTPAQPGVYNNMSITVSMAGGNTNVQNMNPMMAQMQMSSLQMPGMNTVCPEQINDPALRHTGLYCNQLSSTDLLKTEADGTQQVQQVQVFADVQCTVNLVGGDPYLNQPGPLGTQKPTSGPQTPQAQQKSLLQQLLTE
Nonstructural protein 1, sequence (Q194T2 whole entry): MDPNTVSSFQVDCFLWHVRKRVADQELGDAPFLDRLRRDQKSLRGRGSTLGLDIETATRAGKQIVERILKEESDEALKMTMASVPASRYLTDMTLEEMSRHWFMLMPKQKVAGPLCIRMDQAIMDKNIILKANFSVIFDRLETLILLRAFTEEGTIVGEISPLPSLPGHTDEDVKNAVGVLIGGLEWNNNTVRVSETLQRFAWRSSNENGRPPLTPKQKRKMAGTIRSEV

Regarding `CCOC(=O)C(NC(=O)CCl)(Nc1ccc(C(O)(C(=O)OCC)C(F)(F)F)cc1)C(F)(F)F` (centres undefined), the IC50 in assay [1], in assay [2] and in [3] was > 79.4 µM (inactive) in each case.
Take `O=C(Nc1ccc2[nH]c(O)nc2c1)c1ccc([N+](=O)[O-])o1`: the IC50 (in general, the midpoint of a concentration-inhibition curve) in [4] is 29 µM (inactive); in [5] it was > 119 µM (inactive).
As for `O=C(NNC(=O)c1cccc(Br)c1)C(=O)N1CCCCC1`, the IC50 in assay [1], in [2] and in assay [3] was > 79.4 µM (inactive) each time.
As for `CCCCC(C(=O)OCC)C(N)Cc1ccc(F)cc1` (centres undefined), the IC50 in assay [1], in assay [2] and in [3] was > 79.4 µM (inactive) each time.
For `COc1ccc2nc(SCc3cccnc3)c(C#N)cc2c1`, the EC50 (in general, the concentration that produces a half-maximal response) in [6] was 9.56 µM (active); in assay [7], 9.26 µM (active); in assay [8] it was 22.1 µM (not active).
With `O=C(CSc1ncnc2c1oc1ccccc12)Nc1nc2ccccc2s1`, the EC50 in assay [6] was > 79.4 µM (inactive); in assay [7], > 79.4 µM (not active); in assay [8], > 79.4 µM (not active).
On to `CC12CCC(C(=O)N(CSC(=S)N/N=C\c3ccccc3O)C1=O)C2(C)C` (centres undefined), for which the 50% effective concentration (EC50) is > 150 µM (not active) in assay [9]; 7.15 µM (active) in assay [6]; 7.31 µM (active) in [7]; 34.9 µM (not active) in [8]; 2.43 µM (active) in [10]; 5.29 µM (active) in assay [11]. The IC50 in [12] was 2.09 µM (active).
